Data as given in ChEMBL document CHEMBL1151918 (Bioorg Med Chem, 2009).
Counter-ions that a name gives are not always drawn.

What was measured:
Histamine H4 receptor [1] = target: T1, Histamine H4 receptor (Homo sapiens, UniProt Q9H3N8); experiment: Displacement of [3H]histamine from human histamine H4 receptor expressed in human SK-N-MC cells by liquid scintillation counting; format: cell-based
Histamine H3 receptor = Histamine H3 receptor (Homo sapiens, UniProt Q9Y5N1); experiment: Displacement of [3H]N-alpha-methylhistamine from human histamine H3 receptor expressed in human SK-N-MC cells by liquid scintillation counting; format: cell-based
Histamine H4 receptor [2] = target: T1, Histamine H4 receptor; experiment: Antagonist activity at human histamine H4 receptor expressed in human SK-N-MC cells assessed as inhibition of 2-[3-(imidazol-4-yl)-propyl]-1-(4-iodo-benzyl)-isothiourea dihydrobromide-induced intrinsic activity; format: functional, cell-based; settings: read-out: pA2 (converted)

Chain of Histamine H3 receptor (Q9Y5N1 whole entry): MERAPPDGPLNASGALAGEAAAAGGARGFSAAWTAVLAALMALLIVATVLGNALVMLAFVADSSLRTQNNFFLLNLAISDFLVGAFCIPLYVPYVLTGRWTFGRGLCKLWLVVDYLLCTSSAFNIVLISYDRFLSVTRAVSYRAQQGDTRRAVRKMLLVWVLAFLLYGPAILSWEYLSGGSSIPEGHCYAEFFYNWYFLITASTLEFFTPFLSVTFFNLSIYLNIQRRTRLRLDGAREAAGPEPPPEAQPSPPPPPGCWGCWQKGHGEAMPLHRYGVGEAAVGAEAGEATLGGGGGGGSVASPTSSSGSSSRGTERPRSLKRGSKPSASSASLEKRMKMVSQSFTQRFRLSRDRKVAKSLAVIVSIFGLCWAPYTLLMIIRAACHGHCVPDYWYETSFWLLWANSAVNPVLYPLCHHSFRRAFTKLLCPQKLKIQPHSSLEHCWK
T1 sequence (Q9H3N8 whole entry): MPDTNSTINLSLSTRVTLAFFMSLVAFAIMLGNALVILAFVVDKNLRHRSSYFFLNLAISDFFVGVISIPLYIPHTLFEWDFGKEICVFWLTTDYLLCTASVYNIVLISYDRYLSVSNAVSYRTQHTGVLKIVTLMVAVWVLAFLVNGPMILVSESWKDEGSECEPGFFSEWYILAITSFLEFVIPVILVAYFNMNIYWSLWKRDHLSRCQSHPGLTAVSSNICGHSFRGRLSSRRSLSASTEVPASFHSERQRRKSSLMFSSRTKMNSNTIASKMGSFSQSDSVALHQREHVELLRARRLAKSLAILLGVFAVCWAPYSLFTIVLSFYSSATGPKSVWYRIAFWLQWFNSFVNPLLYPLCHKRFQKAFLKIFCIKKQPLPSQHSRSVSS

## N=C(NCCc1ccccc1)SCCCc1c[nH]cn1
Histamine H4 receptor [1]
  Ki: 63.1 nM
Histamine H3 receptor
  Ki: 20 nM

## N=C(NC=C(c1ccccc1)c1ccccc1)NCCCc1c[nH]cn1
Histamine H4 receptor [1]
  Ki: 158 nM
Histamine H3 receptor
  Ki: 316 nM

## NC(=NCc1ccc(Cl)cc1)SCCCc1cnc[nH]1 [CLOBENPROPIT]
Histamine H4 receptor [1]
  Ki: 10 nM

## N=C(NCCC(c1ccccc1)c1ccccc1)SCCCc1c[nH]cn1
Histamine H4 receptor [1]
  Ki: 25.1 nM
Histamine H3 receptor
  Ki: 31.6 nM

## NC(=NCCc1ccc(Br)cc1)SCCCc1cnc[nH]1
Histamine H4 receptor [1]
  Ki: 39.8 nM
Histamine H3 receptor
  Ki: 7.94 nM

## N=C(NCc1ccc(Cl)c(Cl)c1)SCCCc1c[nH]cn1
Histamine H4 receptor [1]
  Ki: 1.58 nM
Histamine H3 receptor
  Ki: 6.31 nM

## Cc1ccc(CNC(=N)SCCCc2c[nH]cn2)cc1
Histamine H4 receptor [1]
  Ki: 25.1 nM
Histamine H3 receptor
  Ki: 6.31 nM

## N=C(N)SCCc1cnc[nH]1 [IMETIT]
Histamine H4 receptor [1]
  Ki: 6.31 nM
Histamine H3 receptor
  Ki: 1.58 nM

## N=C(NCCCc1ccccc1)SCCCc1c[nH]cn1
Histamine H4 receptor [1]
  Ki: 50.1 nM
Histamine H3 receptor
  Ki: 10 nM

## NC(=NCCc1ccc(I)cc1)SCCCc1cnc[nH]1 [IODOPHENPROPIT HYDROBROMIDE]
Histamine H4 receptor [1]
  Ki: 15.8 nM
Histamine H3 receptor
  Ki: 7.94 nM

## NC(=NCCCCc1ccccc1)SCCCc1cnc[nH]1
Histamine H4 receptor [1]
  Ki: 63.1 nM
Histamine H3 receptor
  Ki: 20 nM

## COc1ccc(CNC(=N)SCCCc2c[nH]cn2)cc1
Histamine H4 receptor [1]
  Ki: 12.6 nM
Histamine H3 receptor
  Ki: 7.94 nM

## N=C(NCc1ccc(I)cc1)SCCCc1c[nH]cn1
Histamine H4 receptor [1]
  Ki: 10 nM
Histamine H3 receptor
  Ki: 3.16 nM

## N=C(NCc1ccc(Br)cc1)SCCCc1c[nH]cn1
Histamine H4 receptor [1]
  Ki: 10 nM
Histamine H3 receptor
  Ki: 2.51 nM

## N=C(NCc1ccccc1)SCCCc1c[nH]cn1
Histamine H4 receptor [1]
  Ki: 25.1 nM
Histamine H4 receptor [2]
  Kb: 20 nM
Histamine H3 receptor
  Ki: 7.94 nM

## NC(=NCCCc1cnc[nH]1)NCc1ccccc1
Histamine H4 receptor [1]
  Ki: 25.1 nM
Histamine H3 receptor
  Ki: 79.4 nM

## N=C(NCCc1ccc(Cl)cc1)SCCCc1c[nH]cn1
Histamine H4 receptor [1]
  Ki: 31.6 nM
Histamine H3 receptor
  Ki: 10 nM

## N=C(NCc1cccc(Cl)c1)SCCCc1c[nH]cn1
Histamine H4 receptor [1]
  Ki: 15.8 nM
Histamine H3 receptor
  Ki: 7.94 nM

## N=C(NCc1ccccc1Cl)SCCCc1c[nH]cn1
Histamine H4 receptor [1]
  Ki: 10 nM
Histamine H3 receptor
  Ki: 7.94 nM

## N=C(N)SCCCc1c[nH]cn1
Histamine H4 receptor [1]
  Ki: 12.6 nM
Histamine H3 receptor
  Ki: 2.51 nM

## Cc1ccc(CCNC(=N)SCCCc2c[nH]cn2)cc1
Histamine H4 receptor [1]
  Ki: 100 nM
Histamine H3 receptor
  Ki: 12.6 nM

## COc1ccc(CCNC(=N)SCCCc2c[nH]cn2)cc1
Histamine H4 receptor [1]
  Ki: 158 nM
Histamine H3 receptor
  Ki: 20 nM

## N=C(NCc1ccc(F)cc1)SCCCc1c[nH]cn1
Histamine H4 receptor [1]
  Ki: 25.1 nM
Histamine H3 receptor
  Ki: 5.01 nM
